Laboratory results taken from ChEMBL document CHEMBL5579856, “Stereospecific Synthesis and Biological Evaluation of KRN7000 Analogues with Thio-modifications at the Acyl Moiety” (2024).

Tests used:
Format in all cases: functional
Settings in all cases: dose 200 µg/kg
Mus musculus [1] = assay: Induction of cytokine secretion in male C57BL/6 mouse assessed as ratio of IFN-gamma to IL-4 level in serum at 200 ug/kg, iv by ELISA
Mus musculus [2] = assay: Induction of IFN-gamma secretion in male C57BL/6 mouse assessed as […] in serum at 200 ug/kg, iv measured after 16 hrs by ELISA (reference value: BLD)
Mus musculus [3] = assay: Induction of IL-4 secretion in male C57BL/6 mouse assessed as IL-4 level in serum at 200 ug/kg, iv measured after 4 hrs by ELISA (reference value: BLD)

| Compound | Ratio (Mus musculus [1]) | Activity (Mus musculus [2]) [pg/mL] | Activity (Mus musculus [3]) [pg/mL] |
| --- | --- | --- | --- |
| CCCCCCCCCCCCCC[C@@H](O)[C@@H](O)[C@H](CO[C@H]1O[C@H](CO)[C@H](O)[C@H](O)[C@H]1O)NC(=O)CCCCCCCCCCc1ccc(F)cc1 | 2.03 | 2470.48 | 425.65 |
| CCCCCCCCCCCCCCCCCCCCCCCCCC(=S)N[C@@H](CO[C@H]1O[C@H](CO)[C@H](O)[C@H](O)[C@H]1O)[C@H](O)[C@H](O)CCCCCCCCCCCCCC | 1.21 | 3291.25 | 951.79 |
| CCCCCCCCCCCCCC[C@@H](O)[C@@H](O)[C@H](CO[C@H]1O[C@H](CO)[C@H](O)[C@H](O)[C@H]1O)NC(=S)CCCCCCCCCCc1ccc(F)cc1 | 2.03 | 1610.18 | 276.98 |
| CCCCCCCCCCCCCC[C@@H](O)[C@@H](O)[C@H](CO[C@H]1O[C@H](CO)[C@H](O)[C@H](O)[C@H]1O)NC(=O)CCCCCCCCCCc1ccc(Sc2ccc(F)cc2)cc1 | 2.26 | 2100.52 | 324.56 |
| CCCCCCCCCCCCCC[C@@H](O)[C@@H](O)[C@H](CO[C@H]1O[C@H](CO)[C@H](O)[C@H](O)[C@H]1O)NC(=S)CCCCCCCCCCc1ccc(Oc2ccc(F)cc2)cc1 | 1.59 | 571.16 | 125.69 |
| CCCCCCCCCCCCCC[C@@H](O)[C@@H](O)[C@H](CO[C@H]1O[C@H](CO)[C@H](O)[C@H](O)[C@H]1O)NC(=O)CCCCCCCCCCc1ccc(Oc2ccc(F)cc2)cc1 | 1.12 | 655.43 | 205.34 |
| CCCCCCCCCCCCCC[C@@H](O)[C@@H](O)[C@H](CO[C@H]1O[C@H](CO)[C@H](O)[C@H](O)[C@H]1O)NC(=S)CCCCCCCCCCc1ccc(Sc2ccc(F)cc2)cc1 | 0.99 | 1046.54 | 396.07 |
| CCCCCCCCCCCCCCCCCCCCCCCCCC(=O)N[C@@H](CO[C@H]1O[C@H](CO)[C@H](O)[C@H](O)[C@H]1O)[C@H](O)[C@H](O)CCCCCCCCCCCCCC [RGI-7000] |  | 3083.43 | 1077.7 |
